Experiment [1] in a line: Serum phosphate reducing activity in rats (method of Goldenberg et al.). Format: in vivo. Conditions: 80 μg/kg intravenously, Wistar rats; for prolongation of serum phosphate reducing effect compared with h-CGRP / serum phosphate reducing activity compared with h-CGRP: comparator h-CGRP; for serum phosphate reducing activity compared with h-CGRP: same dose; for reduction of serum phosphate concentration as compared with the control group: tail vein, vs dissolving medium group, FIG. 2. The procedure:
(§1) Serum calcium and serum phosphate reducing activities: Assay method:
(§2) The peptide (1) of the present invention and known h-CGRP (each 80 μg) dissolved in citrate buffer, pH 6.5, containing 0.1% bovine serum albumin (hereinafter designated dissolving medium) (1 ml) were administered intravenously into the tail vein of Wistar rats, body weight 80-90 g, 5-6 rats in one group, at 80 μg/kg. After 30 and 60 mins. of administration, blood samples were collected from the abdominal descending aorta. The serum calcium concentration was measured by atomic adsorption spectrophotometry. Serum phosphate was measured by a method according to Goldenberg et al. [Clin. Chem., 12: 872-882 (1966)].

A short description of experiment [2]: Serum calcium reducing activity in rats (atomic absorption spectrophotometry). It counts as in vivo. Particulars: 80 μg/kg intravenously, Wistar rats; for prolongation of serum calcium reducing effect compared with h-CGRP / serum calcium reducing activity compared with h-CGRP: comparator h-CGRP; for serum calcium reducing activity compared with h-CGRP: same dose; for reduction of serum calcium concentration as compared with the control group: tail vein, vs dissolving medium group, FIG. 1. The protocol: as §1, §2

Ends that are not written are not given here. Peptide text beside a SMILES is read from it.

Regarding `CC(C)C[C@H](NC(=O)[C@H](CCCNC(=N)N)NC(=O)[C@H](Cc1c[nH]cn1)NC(=O)[C@@H](NC(=O)[C@@H](NC(=O)[C@@H]1CSSC[C@H](NC(=O)[C@H](C)N)C(=O)N[C@@H](CC(N)=O)C(=O)N[C@@H]([C@@H](C)O)C(=O)N[C@@H](C)C(=O)N[C@@H]([C@@H](C)O)C(=O)N1)C(C)C)[C@@H](C)O)C(=O)N[C@@H](C)C(=O)NCC(=O)N[C@@H](Cc1ccccc1)C(=O)N[C@@H](CC(C)C)C(=O)N[C@@H](CO)C(=O)N[C@@H](CCCNC(=N)N)C(=O)N[C@@H](CO)C(=O)NCC(=O)NCC(=O)N[C@H](C(=O)NCC(=O)N[C@@H](CCCCN)C(=O)N[C@@H](CC(N)=O)C(=O)N[C@@H](CC(N)=O)C(=O)N[C@@H](Cc1ccccc1)C(=O)N[C@H](C(=O)N1CCC[C@H]1C(=O)N[C@H](C(=O)N[C@@H](CC(N)=O)C(=O)N[C@H](C(=O)NCC(=O)N[C@@H](CO)C(=O)N[C@@H](CCCCN)C(=O)N[C@@H](C)C(=O)N[C@@H](Cc1ccccc1)C(N)=O)C(C)C)[C@@H](C)O)C(C)C)C(C)C` [[Asn^3, Phe^15,Gly^23] h-CGRP(1-37), [Asn^3,Phe^15,Gly^23] h-CGRP(1-37)] (HELM PEPTIDE1{A.C.N.T.A.T.C.V.T.H.R.L.A.G.F.L.S.R.S.G.G.V.G.K.N.N.F.V.P.T.N.V.G.S.K.A.F.[am]}$PEPTIDE1,PEPTIDE1,2:R3-7:R3$$$V2.0), in experiment [1], the “duration of serum phosphate reducing activity” value is on record as “more than 2 hours”, the “prolongation of serum phosphate reducing effect compared with h-CGRP” value was “prolonged significantly”, the “serum phosphate reducing activity compared with h-CGRP” value is listed as “stronger than those of h-CGRP” and the “reduction of serum phosphate concentration as compared with the control group” value is reported as 20-30%. In experiment [2], the “duration of serum calcium reducing activity” value is given as “more than 2 hours”, the “prolongation of serum calcium reducing effect compared with h-CGRP” value is given as “prolonged significantly”, the “serum calcium reducing activity compared with h-CGRP” value is given as “stronger than those of h-CGRP” and the “reduction of serum calcium concentration as compared with the control group” value (“reduction of serum calcium concentration” below) is recorded as 20-30%.

Consider “[Asp^14 ] h-CGRP(1-37) (ACDTATCVTHRLADLLSRSGGVVKNNFVPTNVGSKAF; ends and bridges not checked; cysteine pairing not given here; UniProt P06881 83-119, looked up, variant G14D) [R = H--Ala--NH--, A = Asp, B = Asp, C = Leu, D = Val]”, for which, in experiment [1], the “duration of serum phosphate reducing activity” value is recorded as “more than 2 hours”, the “prolongation of serum phosphate reducing effect compared with h-CGRP” value is listed as “prolonged significantly”, the “serum phosphate reducing activity compared with h-CGRP” value is “stronger than those of h-CGRP” and the “reduction of serum phosphate concentration as compared with the control group” value was 20-30%. In addition, in experiment [2], the “duration of serum calcium reducing activity” value is on record as “more than 2 hours”, the “prolongation of serum calcium reducing effect compared with h-CGRP” value is on record as “prolonged significantly”, the “serum calcium reducing activity compared with h-CGRP” value is listed as “stronger than those of h-CGRP” and the “reduction of serum calcium concentration” value is given as 20-30%.

`CC(C)C[C@H](NC(=O)[C@H](CCCNC(=N)N)NC(=O)[C@H](Cc1c[nH]cn1)NC(=O)[C@@H](NC(=O)[C@@H](NC(=O)[C@@H]1CSSC[C@H](NC(=O)[C@H](C)N)C(=O)N[C@@H](CC(N)=O)C(=O)N[C@@H]([C@@H](C)O)C(=O)N[C@@H](C)C(=O)N[C@@H]([C@@H](C)O)C(=O)N1)C(C)C)[C@@H](C)O)C(=O)N[C@@H](C)C(=O)N[C@@H](CC(=O)O)C(=O)N[C@@H](Cc1ccccc1)C(=O)N[C@@H](CC(C)C)C(=O)N[C@@H](CO)C(=O)N[C@@H](CCCNC(=N)N)C(=O)N[C@@H](CO)C(=O)NCC(=O)NCC(=O)N[C@H](C(=O)N[C@H](C(=O)N[C@@H](CCCCN)C(=O)N[C@@H](CC(N)=O)C(=O)N[C@@H](CC(N)=O)C(=O)N[C@@H](Cc1ccccc1)C(=O)N[C@H](C(=O)N1CCC[C@H]1C(=O)N[C@H](C(=O)N[C@@H](CC(N)=O)C(=O)N[C@H](C(=O)NCC(=O)N[C@@H](CO)C(=O)N[C@@H](CCCCN)C(=O)N[C@@H](C)C(=O)N[C@@H](Cc1ccccc1)C(N)=O)C(C)C)[C@@H](C)O)C(C)C)C(C)C)C(C)C` [Asn^3,Asp^14,Phe^15] h-CGRP(1-37), [Asn^3,Asp^14,Phe^15] h-CGRP(1-37)] (HELM PEPTIDE1{A.C.N.T.A.T.C.V.T.H.R.L.A.D.F.L.S.R.S.G.G.V.V.K.N.N.F.V.P.T.N.V.G.S.K.A.F.[am]}$PEPTIDE1,PEPTIDE1,2:R3-7:R3$$$V2.0): in experiment [1], the “duration of serum phosphate reducing activity” value is given as “more than 2 hours”, the “prolongation of serum phosphate reducing effect compared with h-CGRP” value is reported as “prolonged significantly”, the “serum phosphate reducing activity compared with h-CGRP” value is on record as “stronger than those of h-CGRP” and the “reduction of serum phosphate concentration as compared with the control group” value is on record as 20-30%. For the same compound, in experiment [2], the “duration of serum calcium reducing activity” value was “more than 2 hours”, the “prolongation of serum calcium reducing effect compared with h-CGRP” value was “prolonged significantly”, the “serum calcium reducing activity compared with h-CGRP” value was “stronger than those of h-CGRP” and the “reduction of serum calcium concentration” value is 20-30%.

“desalanyl-deamino-[Asp^14 ] h-CGRP(2-37) [desalanyl-deamino-[Asp14] h-CGRP(2-37)]”: in experiment [1], the “duration of serum phosphate reducing activity” value is reported as “more than 2 hours”, the “prolongation of serum phosphate reducing effect compared with h-CGRP” value is “prolonged significantly”, the “serum phosphate reducing activity compared with h-CGRP” value is on record as “stronger than those of h-CGRP” and the “reduction of serum phosphate concentration as compared with the control group” value is on record as 20-30%. Besides, in experiment [2], the “duration of serum calcium reducing activity” value was “more than 2 hours”, the “prolongation of serum calcium reducing effect compared with h-CGRP” value is on record as “prolonged significantly”, the “serum calcium reducing activity compared with h-CGRP” value was “stronger than those of h-CGRP” and the “reduction of serum calcium concentration” value is 20-30%.

Consider `CC(C)C[C@H](NC(=O)[C@H](CCCNC(=N)N)NC(=O)[C@H](Cc1c[nH]cn1)NC(=O)[C@@H](NC(=O)[C@@H](NC(=O)[C@@H]1CSSC[C@H](NC(=O)[C@H](C)N)C(=O)N[C@@H](CC(N)=O)C(=O)N[C@@H]([C@@H](C)O)C(=O)N[C@@H](C)C(=O)N[C@@H]([C@@H](C)O)C(=O)N1)C(C)C)[C@@H](C)O)C(=O)N[C@@H](C)C(=O)N[C@@H](CC(=O)O)C(=O)N[C@@H](CC(C)C)C(=O)N[C@@H](CC(C)C)C(=O)N[C@@H](CO)C(=O)N[C@@H](CCCNC(=N)N)C(=O)N[C@@H](CO)C(=O)NCC(=O)NCC(=O)N[C@H](C(=O)NCC(=O)N[C@@H](CCCCN)C(=O)N[C@@H](CC(N)=O)C(=O)N[C@@H](CC(N)=O)C(=O)N[C@@H](Cc1ccccc1)C(=O)N[C@H](C(=O)N1CCC[C@H]1C(=O)N[C@H](C(=O)N[C@@H](CC(N)=O)C(=O)N[C@H](C(=O)NCC(=O)N[C@@H](CO)C(=O)N[C@@H](CCCCN)C(=O)N[C@@H](C)C(=O)N[C@@H](Cc1ccccc1)C(N)=O)C(C)C)[C@@H](C)O)C(C)C)C(C)C` [[Asn^3,Asp^14,Gly^23] h-CGRP(1-37)] (HELM PEPTIDE1{A.C.N.T.A.T.C.V.T.H.R.L.A.D.L.L.S.R.S.G.G.V.G.K.N.N.F.V.P.T.N.V.G.S.K.A.F.[am]}$PEPTIDE1,PEPTIDE1,2:R3-7:R3$$$V2.0), for which, in experiment [1], the “duration of serum phosphate reducing activity” value was “more than 2 hours”, the “prolongation of serum phosphate reducing effect compared with h-CGRP” value is on record as “prolonged significantly”, the “serum phosphate reducing activity compared with h-CGRP” value is “stronger than those of h-CGRP” and the “reduction of serum phosphate concentration as compared with the control group” value is 20-30%. In experiment [2], the “duration of serum calcium reducing activity” value is recorded as “more than 2 hours”, the “prolongation of serum calcium reducing effect compared with h-CGRP” value is given as “prolonged significantly”, the “serum calcium reducing activity compared with h-CGRP” value was “stronger than those of h-CGRP” and the “reduction of serum calcium concentration” value is given as 20-30%.
